We go through seven molecules from ChEMBL document CHEMBL1275321, “Synthesis and antitumor activity of novel 6-aryl and 6-alkylpyrazolo[3,4-d]pyrimidin-4-one derivatives” (Eur J Med Chem, 2010).

In brackets after ≈: the same amount, converted by molar mass.

In general, IC50 refers to the midpoint of a concentration-inhibition curve.

This assay deals with HCT-116. The assay is described as follows: Cytotoxicity against human HCT116 cells after 48 hrs by sulforhodamine B assay. The class given is functional, cell-based. Particulars: HCT-116, 48 h. (In SRB staining, fixed cells bind dye roughly in proportion to their protein.)
In the case of `CSc1nn(-c2ccccc2)c2nc(-c3cccc([N+](=O)[O-])c3)[nH]c(=O)c12`, 0.67 µg/mL (≈ 1.77 µM) corresponded to half-maximal inhibition (IC50).
The same measure for `CSc1nn(-c2ccccc2)c2nc(CCNc3ccccc3)[nH]c(=O)c12`: 1.34 µg/mL (≈ 3.55 µM).
`CSc1nn(-c2ccccc2)c2nc(CNc3ccc(S(N)(=O)=O)cc3)[nH]c(=O)c12`: the IC50 turned out to be 3.09 µg/mL (≈ 6.98 µM).
The same measure for `COc1ccc(NCc2nc3c(c(SC)nn3-c3ccccc3)c(=O)[nH]2)cc1`: 2.7 µg/mL (≈ 6.86 µM); for `CSc1nn(-c2ccccc2)c2nc(CCNC3CCCCC3)[nH]c(=O)c12`: 0.47 µg/mL (≈ 1.23 µM).
The same measure for `CSc1nn(-c2ccccc2)c2nc(CCNc3ccc(S(N)(=O)=O)cc3)[nH]c(=O)c12`: 2.82 µg/mL (≈ 6.18 µM); for `CSc1nn(-c2ccccc2)c2c1C(=O)NC(c1ccccc1)N2` (configuration not stated): 2.4 µg/mL (≈ 7.13 µM).
